The target of test [1] is T1, mitochondrial complex I (Bos taurus, UniProt P03887+P17694+P42026). Briefly: NADH:decylubiquinone/DCPIP complex I kinetics in freeze-thawed mitochondria. Format: biochemical.
Test [2] has as its target T1, mitochondrial complex I. Briefly: Michaelis-Menten kinetics with DCPIP reduction, NADH as electron donor. Format: cell-based.

Structures are written as SMILES.

T1 sequence (P42026 38-216): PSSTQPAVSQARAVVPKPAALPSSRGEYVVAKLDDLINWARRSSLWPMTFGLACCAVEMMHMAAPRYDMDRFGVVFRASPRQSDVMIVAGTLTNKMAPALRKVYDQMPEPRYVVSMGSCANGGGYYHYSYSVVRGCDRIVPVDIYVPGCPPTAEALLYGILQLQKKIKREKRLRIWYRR
T1 sequence (P03887 whole entry): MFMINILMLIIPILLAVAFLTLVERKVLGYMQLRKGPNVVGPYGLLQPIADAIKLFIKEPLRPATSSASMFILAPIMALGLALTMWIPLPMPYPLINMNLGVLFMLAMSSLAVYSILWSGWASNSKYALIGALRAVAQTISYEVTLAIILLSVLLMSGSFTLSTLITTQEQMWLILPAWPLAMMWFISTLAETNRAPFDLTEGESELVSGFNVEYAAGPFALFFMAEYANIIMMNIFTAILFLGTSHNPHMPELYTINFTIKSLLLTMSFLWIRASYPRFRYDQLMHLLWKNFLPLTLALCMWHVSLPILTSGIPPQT
T1 sequence (P17694 34-463): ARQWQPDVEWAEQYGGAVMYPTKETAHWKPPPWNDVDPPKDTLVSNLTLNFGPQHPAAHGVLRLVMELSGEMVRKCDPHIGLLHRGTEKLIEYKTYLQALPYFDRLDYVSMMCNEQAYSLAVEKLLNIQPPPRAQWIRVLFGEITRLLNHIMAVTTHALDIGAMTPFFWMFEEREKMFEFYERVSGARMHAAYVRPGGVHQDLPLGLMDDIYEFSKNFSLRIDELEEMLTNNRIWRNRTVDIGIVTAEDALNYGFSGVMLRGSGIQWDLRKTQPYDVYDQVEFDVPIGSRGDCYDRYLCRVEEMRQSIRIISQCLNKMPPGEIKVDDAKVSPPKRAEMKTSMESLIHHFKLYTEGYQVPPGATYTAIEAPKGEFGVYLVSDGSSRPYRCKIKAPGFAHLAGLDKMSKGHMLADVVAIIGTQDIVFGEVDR

`CCCCCCCc1[nH]c2ccccc2c(=O)c1O` [PQS, 2‐heptyl‐3‐hydroxy‐4(1H)‐quinolone] came in with an inhibition constant Ki in test [1] of 560 nM. As to `CCCCCCCCCCC1=C(C)C(=O)C(OC)=C(OC)C1=O` [decylubiquinone], the “Michaelis-Menten kinetics with DCPIP reduction, NADH as electron donor” value in test [2] is listed as “Kinetics with the substrate analog decylubiquinone at different PQS concentrations were measured”.

The term Ki denotes the equilibrium dissociation constant of an inhibitor or competing ligand from its target. A higher Ki goes with a looser hold on the target.

The record behind these values is publication PMC7059627 (FASEB bioAdvances, 2020).
